Source: patent publication US11110158B2, “Prostate-associated antigens and vaccine-based immunotherapy regimens” (Pfizer Inc., priority 2012, dated 2021)
Read-outs that look alike come from different tables or passages of the source.

Legend:
human PSMA = test: IFNγ ELISPOT of splenocytes, PSMA DNA constructs by PMED in Pasteur (HLA A2/DR1) mice; type: in vivo, mouse; conditions: positive SFC>50
From the text: Two human HLA transgenic mouse models were used to evaluate the presentation of various PSMA antigens by different HLAs and a human PSMA transgenic mouse model was used to assess the breaking of immune tolerance to human PSMA. The first HLA transgenic mouse model utilizes the HLA A2/DR1 mice (from the Pasteur Institute, Paris, France; also referred to as “Pasteur mice”). […] The second HLA transgenic mouse model uses mice that are knock in with human HLA A24 that is covalently linked to the human β-2-microglobulin at the H2bk locus. […] This model allows evaluation of antigen presentation in the context of human HLA A24.
Eight-to-10 week-old transgenic mice were immunized using PMED method with various PSMA DNA constructs in a prime/boost/boost regimen, two weeks apart between each vaccination. Alternatively, mice were primed with adenovirus vectors encoding the PSMA antigen at 1×10^9 viral particles in 50 μl (PBS) by intramuscular injection. The adenovirus vector (pShuttle-CMV vector from Stratagene) was modified to contain NheI and BgIII restriction sites within the multiple cloning site. The DNA encoding human PSMA modified was then restriction digested with NheI and BgIII, ligated into this vector and sequence confirmed. The pShuttle human PSMA modified vector was then recombined with the pAdEasy-1 vector and virus was propagated according to the AdEasy system (Stratagene). Twenty-days later, they were boosted with PMED as described above. In each of the regimens used, antigen specific T cell response was measured 7 days after the last immunization in an interferon-gamma (IFNγ) ELISPOT assay. The ELISPOT assay is similar to the sandwich enzyme-linked immunosorbent assay (ELISA). Briefly, a capture antibody specific to IFNγ BD Bioscience, #51-2525kc) is coated onto a polyvinylidene fluoride (PVDF) membrane in a microplate overnight at 4° C. The plate is blocked with serum/protein to prevent nonspecific binding to the antibody. After blocking, effector cells (such as splenocytes isolated from PSMA immunized mice) and targets (such as PSMA peptides from peptide library, target cells pulsed with peptides or tumor cells expressing the relevant antigens) or mitogen (which will stimulate splenocytes non-specifically to produce IFNγ[…] are added to the wells and incubated overnight at 37° C. in a 5% CO2 incubator. Cytokine secreted by effector cells are captured by the coating antibody on the surface of the PVDF membrane. After removing the cells and culture media, 100 μl of a biotinylated polyclonal anti-mouse IFNγ antibody (0.5 mg/ml-BD Bioscience, #51-1818 kz) was added to each of the wells for detection. The spots are visualized by adding streptavidin-horseradish peroxidase (HRP, BD Bioscience, #557630) and the precipitate substrate, 3-amino-9-ethylcarbazole (AEC), to yield a red color spot. Each spot represents a single cytokine producing T cell. In general, in the studies disclosed here the ELISpot assay was set up as follows: 5×10^5 splenocytes from PSMA immunized mice were cultured (1) in the presence of PSMA specific peptides derived from a PSMA peptide library (see Table 16) made of 15-amino acid peptides overlapping by 11 amino acids, (2) with known HLA A2.1 restricted PSMA specific peptides, or (3) with tumor cells. To measure the recognition of endogenous antigen presentation, splenocytes were cultured with a human HLA A2 prostate cancer cells (i.e. LNCaP, available from ATCC) that naturally express PSMA or cultured with HLA A2 tumor cells transduced with adenovirus encoding and thus expressing the human PSMA modified antigen. In addition, human PSMA ECD protein was added to the ELISpot assay to measure specifically CD4 IFNγ[…] producing cells. For controls where appropriate, HLA A2 restricted HER-2 specific peptide p168-175 or tumor cells not expressing PSMA or irrelevant protein such as BSA were used as a negative control in the IFNγ […]ELISpot assay. […]

[1] = design: species or system Indian Rhesus macaques; conditions: rhesus monkey, in vivo, 10 mg/kg
Protocol: Three animals per treatment group were injected with the anti-CTLA-4 antibody Tremelimumab at 10 mg/kg, either with a single intravenous injection into the saphenous vein or multiple 0.2 ml intradermal bilateral injections in the upper thigh in proximity to the inguinal draining lymph nodes. Blood samples were collected at 0, 1, 2, 4, 8, 12, 24, and 48 hrs post injection into 2.0 ml vaccutainer tubes containing lithium heparin as the anticoagulant. Plasma was collected from the supernatant in the vaccutainer tubes after centrifugation at 1500×g at 4° C. for 10 min. The levels of Tremelimumab in the plasma was measured by a quantitative ELISA assay according to the procedure provided below.
Tremelimumab Quantitative ELISA Assay Procedure. The 384-well high bind assay plates (VWR-Greiner Bio-One Cat #82051-264) were coated with 25 μl/well of CD-152 (CTLA-4; Ancell Immunology Research Products Cat #501-020) at 1.0 μg/ml in 100 mM carbonate-bicarbonate coating buffer and incubated overnight at 4° C. […] The colorimetric reaction was stopped by addition of 12.5 μL/well 1N Sulfuric acid and the absorbance then read at 450 nm. The amount of Tremelimumab in each sample was quantified using the standard curve with 0.27 to 67 ng/mL used as the quantitative range.

| Substance | IFN-γ SFC/1 × 10^6 splenocytes (human PSMA; Table 2, HLA A2.1 restricted peptide PSMA p275, ( ) = standard deviation) | IFN-γ SFC/1 × 10^6 splenocytes (human PSMA; Table 2, HLA A2.1 restricted peptide PSMA p627, ( ) = standard deviation) | IFN-γ SFC/1 × 10^6 splenocytes (human PSMA; Table 2, HLA A2.1 restricted peptide PSMA p662, ( ) = standard deviation) | IFN-γ SFC/1 × 10^6 splenocytes (human PSMA; Table 2, HLA A2.1 restricted peptide PSMA p663, ( ) = standard deviation) | IFN-γ SFC/1 × 10^6 splenocytes (human PSMA; Table 2, PC3 tumor cells (no PSMA, negative control), ( ) = standard deviation) | IFN-γ SFC/1 × 10^6 splenocytes (human PSMA; Table 2, PSMA ECD protein, ( ) = standard deviation) | IFN-γ SFC/1 × 10^6 splenocytes (human PSMA; Table 2, PSMA+ HLA A2.1 LNCaP tumor cells, ( ) = standard deviation) | IFN-γ SFC/1 × 10^6 splenocytes (human PSMA; Table 2, target peptide PSA p64, ( ) = standard deviation) | AUC0-24 [1] | AUC0-24 ([1]; iv) |
| --- | --- | --- | --- | --- | --- | --- | --- | --- | --- | --- |
| PSMA modified: membrane-bound polypeptide of amino acids 15-750 of human PSMA, SEQ ID NO: 9; tested as DNA construct | 304 (21) SFC/1 × 10^6 splenocytes | 222 (14) SFC/1 × 10^6 splenocytes | 925.1 (77) SFC/1 × 10^6 splenocytes | 1524.9 (45) SFC/1 × 10^6 splenocytes | 1 (1) SFC/1 × 10^6 splenocytes | 731 (16) SFC/1 × 10^6 splenocytes | 96 (12) SFC/1 × 10^6 splenocytes | 2 (4) SFC/1 × 10^6 splenocytes | – | – |
| Tremelimumab: fully human IgG2 anti-CTLA-4 monoclonal antibody, CAS 745013-59-6, SEQ ID NOs:42 and 43 | – | – | – | – | – | – | – | – | 4900 µg·h/mL | 7200 µg·h/mL |
